According to PubChem BioAssay AID328 (DTP/NCI, 2004):
“And” between values parts separate entries of the source, which are not always exact repeats. Equal values may be shown once. Inconclusive results and toxic doses are left out.

System: BDF1 mice, P388 leukemia ip, median survival T/C
Test: NCI In Vivo Anticancer Drug Screen. Data for tumor model P388 Leukemia (intraperitoneal) in B6D2F1 (BDF1) mice
Conditions: endpoint: median survival time, higher = longer survival
Method in brief: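 Each value expresses how treatment altered survival: treated-mouse outcome over vehicle-mouse outcome, both groups bearing the transplanted tumour.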

[1] = dose: 100.0 mg/kg/injection, schedule: Q04DX003 (ip), vehicle: saline
[2] = dose: 100.0 mg/kg/injection, schedule: Q04DX003 (ip), vehicle: Klucel (hydroxypropylcellulose) (HPC)
[3] = dose: 200.0 mg/kg/injection, schedule: Q04DX003 (ip), vehicle: Klucel (hydroxypropylcellulose) (HPC)
[4] = dose: 400.0 mg/kg/injection, schedule: Q04DX003 (ip), vehicle: Klucel (hydroxypropylcellulose) (HPC)
[5] = dose: 100.0 mg/kg/injection, schedule: Q04DX003 (ip), vehicle: saline with Tween-80
[6] = dose: 200.0 mg/kg/injection, schedule: Q04DX003 (ip), vehicle: saline with Tween-80
[7] = dose: 400.0 mg/kg/injection, schedule: Q04DX003 (ip), vehicle: saline with Tween-80
[8] = dose: 100.0 mg/kg/injection, schedule: Q01DX009 (ip), vehicle: Klucel (hydroxypropylcellulose) (HPC)
[9] = dose: 200.0 mg/kg/injection, schedule: Q01DX009 (ip), vehicle: Klucel (hydroxypropylcellulose) (HPC)
[10] = dose: 25.0 mg/kg/injection, schedule: Q01DX009 (ip), vehicle: saline with Tween-80
[11] = dose: 50.0 mg/kg/injection, schedule: Q01DX009 (ip), vehicle: saline with Tween-80
[12] = dose: 50.0 mg/kg/injection, schedule: Q01DX009 (ip), vehicle: Klucel (hydroxypropylcellulose) (HPC)
[13] = dose: 25.0 mg/kg/injection, schedule: Q01DX009 (ip), vehicle: Klucel (hydroxypropylcellulose) (HPC)

With `CC1CN1c1cc(O)c(N2CC2C)cc1O` (centres undefined) the T/C (dose: 1.32 mg/kg/injection, schedule: Q01DX009 (ip), vehicle: saline with Tween-80) was 154 % of control, the T/C (dose: 2.0 mg/kg/injection, schedule: Q01DX009 (ip), vehicle: saline with Tween-80) was 208 % of control and the T/C (dose: 2.2 mg/kg/injection, schedule: Q01DX009 (ip), vehicle: saline with Tween-80) was 200 % of control. The T/C (dose: 3.0 mg/kg/injection, schedule: Q01DX009 (ip), vehicle: saline with Tween-80) was 187 % of control, the T/C (dose: 3.3 mg/kg/injection, schedule: Q01DX009 (ip), vehicle: saline with Tween-80) was 265 % of control and the T/C (dose: 5.0 mg/kg/injection, schedule: Q01DX009 (ip), vehicle: saline with Tween-80) was 310 % of control and 204 % of control. For the same compound, the T/C (dose: 5.0 mg/kg/injection, schedule: Q04DX003 (ip), vehicle: saline with Tween-80) was 154 % of control, the T/C (dose: 7.5 mg/kg/injection, schedule: Q04DX003 (ip), vehicle: saline with Tween-80) was 231 % of control and the T/C (dose: 10.0 mg/kg/injection, schedule: Q01DX009 (ip), vehicle: saline with Tween-80) was 90 % of control.
In the case of `O=C1CCCN1.O=C1CCCN1.[Br][Co][Br]`, the T/C (dose: 25.0 mg/kg/injection, schedule: Q01DX009 (ip), vehicle: saline) is reported as 108 % of control, the T/C (dose: 44.0 mg/kg/injection, schedule: Q01DX009 (ip), vehicle: saline) is reported as 109 % of control and the T/C (dose: 50.0 mg/kg/injection, schedule: Q01DX009 (ip), vehicle: saline) is reported as 113 % of control. For the same compound, the T/C (dose: 50.0 mg/kg/injection, schedule: Q04DX003 (ip), vehicle: saline) was 105 % of control and the T/C [1] was 111 % of control.
For `COc1ccc2c(c1)c1c(C)c3cnccc3c(C)c1n2CCCN`, the T/C (dose: 1.56 mg/kg/injection, schedule: Q01DX009 (ip), vehicle: saline) was 95 % of control, the T/C (dose: 3.12 mg/kg/injection, schedule: Q01DX009 (ip), vehicle: saline) was 95 % of control and the T/C (dose: 3.12 mg/kg/injection, schedule: Q04DX003 (ip), vehicle: saline) was 112 % of control. For the same compound, the T/C (dose: 6.25 mg/kg/injection, schedule: Q01DX009 (ip), vehicle: saline) was 111 % of control, the T/C (dose: 6.25 mg/kg/injection, schedule: Q04DX003 (ip), vehicle: saline) was 121 % of control and the T/C (dose: 12.5 mg/kg/injection, schedule: Q01DX009 (ip), vehicle: saline) was 105 % of control. The T/C (dose: 12.5 mg/kg/injection, schedule: Q04DX003 (ip), vehicle: saline) was 107 % of control and the T/C (dose: 25.0 mg/kg/injection, schedule: Q04DX003 (ip), vehicle: saline) was 101 % of control and 104 % of control.
`CCC1(O)C2CCCC1CCC2` (centres undefined) was tested, and the T/C (dose: 100.0 mg/kg/injection, schedule: Q01DX009 (ip), vehicle: other) was 100 % of control, the T/C [2] was 100 % of control and the T/C (dose: 200.0 mg/kg/injection, schedule: Q01DX009 (ip), vehicle: other) was 109 % of control. The T/C [3] was 108 % of control, the T/C (dose: 400.0 mg/kg/injection, schedule: Q01DX009 (ip), vehicle: other) was 113 % of control and the T/C [4] was 100 % of control.
In the case of `CCOC(=O)NC12c3ccccc3C(c3ccccc31)C(C(=O)O)C2C(=O)O` (centres undefined), the T/C [5] is reported as 118 % of control, the T/C [6] is reported as 118 % of control and the T/C [7] is reported as 118 % of control.
For `CCNC(C)(C)C(SS)c1ccc(Br)cc1` (centres undefined), the T/C (dose: 6.25 mg/kg/injection, schedule: Q01DX009 (ip), vehicle: water) was 100 % of control, the T/C (dose: 12.5 mg/kg/injection, schedule: Q01DX009 (ip), vehicle: water) was 92 % of control and the T/C (dose: 25.0 mg/kg/injection, schedule: Q01DX009 (ip), vehicle: water) was 96 % of control. For the same compound, the T/C (dose: 25.0 mg/kg/injection, schedule: Q04DX003 (ip), vehicle: water) was 102 % of control, the T/C (dose: 50.0 mg/kg/injection, schedule: Q01DX009 (ip), vehicle: water) was 101 % of control and the T/C (dose: 50.0 mg/kg/injection, schedule: Q04DX003 (ip), vehicle: water) was 100 % of control. For the same compound, the T/C (dose: 100.0 mg/kg/injection, schedule: Q01DX009 (ip), vehicle: water) was 109 % of control, the T/C (dose: 100.0 mg/kg/injection, schedule: Q04DX003 (ip), vehicle: water) was 102 % of control and the T/C (dose: 200.0 mg/kg/injection, schedule: Q01DX009 (ip), vehicle: water) was 101 % of control. The T/C (dose: 200.0 mg/kg/injection, schedule: Q04DX003 (ip), vehicle: water) was 106 % of control and the T/C (dose: 400.0 mg/kg/injection, schedule: Q04DX003 (ip), vehicle: water) was 90 % of control.
In the case of `OCCCNc1cccc2ccccc12`, the T/C [8] is reported as 105 % of control, the T/C [2] is reported as 100 % of control and the T/C [9] is reported as 100 % of control. The T/C [3] was 100 % of control, the T/C (dose: 400.0 mg/kg/injection, schedule: Q01DX009 (ip), vehicle: Klucel (hydroxypropylcellulose) (HPC)) was 110 % of control and the T/C [4] was 100 % of control.
For `CC1NC(=O)OC1C(C)(C)C` (centres undefined), the T/C (dose: 12.5 mg/kg/injection, schedule: Q01DX009 (ip), vehicle: saline with Tween-80) was 88 % of control, the T/C [10] was 98 % of control and the T/C [11] was 86 % of control and 95 % of control.
With `O=C(/C=C/c1c(Cl)cccc1Cl)c1ccccc1` the T/C [12] was 97 % of control, the T/C [8] was 105 % of control and the T/C [9] was 97 % of control.
In the case of `O=C(S)c1ccccc1Br`, the T/C (dose: 50.0 mg/kg/injection, schedule: Q01DX005 (ip), vehicle: saline with Tween-80) is reported as 99 % of control, the T/C (dose: 100.0 mg/kg/injection, schedule: Q01DX005 (ip), vehicle: saline with Tween-80) is reported as 92 % of control and the T/C (dose: 200.0 mg/kg/injection, schedule: Q01DX005 (ip), vehicle: saline with Tween-80) is reported as 100 % of control.
In the case of `O=[N+]([O-])c1ccccc1SNc1ccc(NSc2ccccc2[N+](=O)[O-])cc1`, the T/C (dose: 3.13 mg/kg/injection, schedule: Q01DX001 (ip), vehicle: saline with Tween-80) is reported as 104 % of control, the T/C (dose: 6.25 mg/kg/injection, schedule: Q01DX001 (ip), vehicle: saline with Tween-80) is reported as 109 % of control and the T/C (dose: 12.5 mg/kg/injection, schedule: Q01DX001 (ip), vehicle: saline with Tween-80) is reported as 95 % of control.
`CC(=O)Oc1ccc(C2C3=C(COC3=O)CC3=C2C(=O)OC3)cc1` was tested, and the T/C (dose: 100.0 mg/kg/injection, schedule: Q01DX007 (ip), vehicle: saline with Tween-80) was 95 % of control, the T/C [5] was 100 % of control and the T/C (dose: 200.0 mg/kg/injection, schedule: Q01DX007 (ip), vehicle: saline with Tween-80) was 90 % of control. The T/C [6] was 110 % of control, the T/C (dose: 400.0 mg/kg/injection, schedule: Q01DX007 (ip), vehicle: saline with Tween-80) was 100 % of control and the T/C [7] was 100 % of control.
With `Nc1ncccc1C(=O)O` the T/C (dose: 62.5 mg/kg/injection, schedule: Q01DX010 (ip), vehicle: saline) was 90 % of control, the T/C (dose: 125.0 mg/kg/injection, schedule: Q01DX010 (ip), vehicle: saline) was 100 % of control and the T/C (dose: 250.0 mg/kg/injection, schedule: Q01DX010 (ip), vehicle: carboxymethylcellulose (CMC)) was 113 % of control. For the same compound, the T/C (dose: 500.0 mg/kg/injection, schedule: Q01DX010 (ip), vehicle: carboxymethylcellulose (CMC)) was 100 % of control.
For `COC(=O)C1C(O)C(C)C(O)C(C)C=C(C)C2=C3C(=C(C)C(=O)c4c(O)c(c(C)c(OC(C)=O)c43)NC(=O)C(C)=C/C=C\C(C)C(O)C(C)C1O)OCO2` (centres undefined), the T/C [13] was 101 % of control, the T/C [10] was 90 % of control and the T/C [12] was 110 % of control and 97 % of control. The T/C [11] was 109 % of control, the T/C [8] was 101 % of control and 113 % of control and the T/C (dose: 100.0 mg/kg/injection, schedule: Q01DX009 (ip), vehicle: saline with Tween-80) was 90 % of control.
In the case of `OCCC1CC1=C1CC1` (centres undefined), the T/C [13] is reported as 105 % of control, the T/C [12] is reported as 105 % of control and the T/C [8] is reported as 110 % of control.
`Cc1ccc(C2(C(=O)O)CC2)cc1` was tested, and the T/C [5] was 100 % of control, the T/C [6] was 104 % of control and the T/C [7] was 108 % of control.
With `O=S(=O)(O)CCN1CCN(CCO)CC1` the T/C [1] was 91 % of control, the T/C (dose: 200.0 mg/kg/injection, schedule: Q04DX003 (ip), vehicle: saline) was 108 % of control and the T/C (dose: 400.0 mg/kg/injection, schedule: Q04DX003 (ip), vehicle: saline) was 95 % of control.
For `COc1ccc(Br)cc1/C=C/[N+](=O)[O-]`, the T/C [11] was 87 % of control.
`O=C1C(=C(C(F)(F)F)C(F)(F)F)C2CCC1C2` (centres undefined) was tested, and the T/C (dose: 6.25 mg/kg/injection, schedule: Q04DX003 (ip), vehicle: saline with Tween-80) was 110 % of control, the T/C (dose: 12.5 mg/kg/injection, schedule: Q04DX003 (ip), vehicle: saline with Tween-80) was 100 % of control and the T/C (dose: 25.0 mg/kg/injection, schedule: Q04DX003 (ip), vehicle: saline with Tween-80) was 90 % of control.
